test: Log P by HPLC on reversed phase columns (EEC directive 79/831 Annex V.A8); format: physicochemical; conditions: Table 1; method [a]: LC-UV, acidic range, 0.1% formic acid in water and acetonitrile as eluent
Protocol: Measurement of Log P values was performed according to EEC directive 79/831 Annex V.A8 by HPLC (High Performance Liquid Chromatography) on reversed phase columns with the following methods: • ^[a] Log P value is determined by measurement of LC-UV, in an acidic range, with 0.1% formic acid in water and acetonitrile as eluent (linear gradient from 10% acetonitrile to 95% acetonitrile). • ^[b] Log P value is determined by measurement of LC-UV, in a neutral range, with 0.001 molar ammonium acetate solution in water and acetonitrile as eluent (linear gradient from 10% acetonitrile to 95% acetonitrile). • ^[c] Log P value is determined by measurement of LC-UV, in an acidic range, with 0.1% phosphoric acid and acetonitrile as eluent (linear gradient from 10% acetonitrile to 95% acetonitrile).
If more than one Log P value is available within the same method, all the values are given and separated by “+”.
Calibration was done with straight-chain alkan-2-ones (with 3 to 16 carbon atoms) with known Log P values (measurement of Log P values using retention times with linear interpolation between successive alkanones).

LogP	Compound	chromatographic logP
2.58^[a]	FC(F)(F)c1cc(Oc2ccc(Cl)nc2)ccc1C1(Cn2cncc2Cl)OCCO1 [Compound I-05]	–
3.15 ^[a]	C#Cc1cncn1CC1(c2ccc(Oc3ccc(Cl)cc3)cc2Cl)OCC(C)O1 (racemic) [Compound I-26]	–
3.78 ^[a]	N#Cc1cncn1CC1(c2ccc(Oc3ccc(Cl)cc3)cc2Cl)OCCO1 [Compound I-33]	–
4.64^[a]	FC(F)(F)c1cncn1CC1(c2ccc(Oc3ccc(Cl)cc3)cc2Cl)OCCO1 [Compound I-10]	–
2.66^[a]	Clc1ccc(Oc2ccc(C3(Cn4cncc4Cl)OCCO3)c(Cl)c2)nc1 [Compound I-14]	–
3.64^[a]	CC1COC(Cn2cncc2Cl)(c2ccc(Oc3ccc(Cl)cc3)cc2Cl)O1 (mixture of isomers) [Compound I-09]	–
4.03 ^[a]	N#Cc1cncn1CC1(c2ccc(Oc3ccc(Cl)cc3)cc2C(F)(F)F)OCCO1 [Compound I-35]	–
3.85 ^[a]	CC1COC(Cn2cncc2Br)(c2ccc(Oc3ccc(C(F)(F)F)cc3)cc2Cl)O1 (racemic) [Compound I-31]	–
3.58 ^[a]	FC(F)(F)c1cc(Oc2ccc(Cl)cc2)ccc1C1(Cn2cncc2Br)OCCO1 [Compound I-27]	–
4.98 ^[a]	C[Si](C)(C)C#Cc1ccc(Oc2ccc(C3(Cn4cncc4Br)OCCO3)c(Cl)c2)cc1 [Compound I-24]	–
–	C#Cc1cncn1CC1(c2ccc(Oc3ccc(C(F)(F)F)cc3)cc2Cl)OCCO1 [Compound I-30, 1-[(2-{2-chloro-4-[4-(trifluoromethyl)phenoxy]phenyl}-1,3-dioxolan-2-yl)methyl]-5-ethynyl-1H-imidazole]	3.04
3.53^[a]	Clc1cc(Oc2ccc(Br)cc2)ccc1C1(Cn2cncc2Cl)OCCO1 [Compound I-07]	–
3.76^[a]	Clc1cc(Oc2ccc(I)cc2)ccc1C1(Cn2cncc2Br)OCCO1 [Compound I-08]	–
3.44 ^[a]	FC(F)(F)c1ccc(Oc2ccc(C3(Cn4cncc4Br)OCCO3)c(Cl)c2)cc1 [Compound I-29]	–
3.06^[a]	Fc1cncn1CC1(c2ccc(Oc3ccc(Cl)cc3)cc2C(F)(F)F)OCCO1 [Compound I-15]	–
2.42^[a]	Clc1ccc(Oc2ccc(C3(Cn4cncc4Cl)OCCO3)c(Cl)c2)cn1 [Compound I-13]	–
2.34^[a]	Fc1nc(Oc2ccc(Cl)cc2)ccc1C1(Cn2cncc2F)OCCO1 [Compound I-17]	–
3.92 ^[a]	N#Cc1cncn1CC1(c2ccc(Oc3ccc(C(F)(F)F)cc3)cc2Cl)OCCO1 [Compound I-34]	–
2.78^[a]	Fc1cncn1CC1(c2ccc(Oc3ccc(Br)cc3)nc2C(F)(F)F)OCCO1 [Compound I-16]	–
2.17^[a]	Fc1cncn1CC1(c2ccc(Oc3ccc(Br)nc3)nc2C(F)(F)F)OCCO1 [Compound I-20]	–
3.68^[a]	CC1COC(Cn2cncc2Br)(c2ccc(Oc3ccc(Cl)cc3)cc2Cl)O1 (racemic) [Compound I-23]	–
3.77^[a]	FC(F)(F)c1cc(Oc2ccc(Br)cc2)ccc1C1(Cn2cncc2Cl)OCCO1 [Compound I-06]	–
3.48^[a]	Clc1cc(Oc2ccc(Br)cc2)ccc1C1(Cn2cncc2Br)OCCO1 [Compound I-21]	–
3.13 ^[a]	C#Cc1cncn1CC1(c2ccc(Oc3ccc(Cl)cc3)cc2C(F)(F)F)OCCO1 [Compound I-28]	–
2.94^[a]	C#Cc1cncn1CC1(c2ccc(Oc3ccc(Cl)cc3)cc2Cl)OCCO1 [Compound I-22]	–
2.76 ^[a]	C#Cc1ccc(Oc2ccc(C3(Cn4cncc4C#C)OCCO3)c(Cl)c2)cc1 [Compound I-25]	–
3.82^[a]	Clc1cc(Oc2ccc(I)cc2)ccc1C1(Cn2cncc2Cl)OCCO1 [Compound I-03]	–
2.88^[a]	Fc1cncn1CC1(c2ccc(Oc3ccc(Cl)cc3)cc2Cl)OCCO1 [Compound I-11]	–

same assay, conditions: Table 2 (I-RP compounds); method [a]: LC-UV, acidic range, 0.1% formic acid in water and acetonitrile as eluent

LogP	Compound	chromatographic logP
–	C[Si](C)(C)C#Cc1cncn1CC1(c2ccc(Oc3ccc(C(F)(F)F)cc3)cc2Cl)OCCO1 [I-RP-05, 1-[(2-{2-chloro-4-[4-(trifluoromethyl)phenoxy]phenyl}-1,3-dioxolan-2-yl)methyl]-5-[(trimethylsilyl)ethynyl]-1H-imidazole]	4.59
4.90 ^[a]	CC1COC(Cn2cncc2C#C[Si](C)(C)C)(c2ccc(Oc3ccc(Cl)cc3)cc2Cl)O1 (racemic) [I-RP-03]	–
4.54 ^[a]	C[Si](C)(C)C#Cc1cncn1CC1(c2ccc(Oc3ccc(Cl)cc3)cc2Cl)OCCO1 [I-RP-01]	–
6.17 ^[a]	C[Si](C)(C)C#Cc1ccc(Oc2ccc(C3(Cn4cncc4C#C[Si](C)(C)C)OCCO3)c(Cl)c2)cc1 [I-RP-02]	–
4.67 ^[a]	C[Si](C)(C)C#Cc1cncn1CC1(c2ccc(Oc3ccc(Cl)cc3)cc2C(F)(F)F)OCCO1 [I-RP-04]	–

same assay, conditions: reversed phase HPLC columns; Table 1; method [a]: LC-UV, acidic range, 0.1% formic acid in water and acetonitrile as eluent

chromatographic logP	Compound
3.06	CC1COC(Cn2cncc2F)(c2ccc(Oc3ccc(Cl)cc3)cc2Cl)O1 (stereo not shown) [Compound I-12, 1-[[2-[2-chloro-4-(4-chlorophenoxy)phenyl]-4-methyl-1,3-dioxolan-2-yl]methyl]-5-fluoro-imidazole]
3.35	Clc1ccc(Oc2ccc(C3(Cn4cncc4Br)OCCO3)c(Cl)c2)cc1 [Compound I-02, 5-bromo-1-[[2-[2-chloro-4-(4-chlorophenoxy)phenyl]-1,3-dioxolan-2-yl]methyl]imidazole]
3.75	FC(F)(F)c1cc(Oc2ccc(Cl)cc2)ccc1C1(Cn2cncc2Cl)OCCO1 [Compound I-04, 5-chloro-1-[[2-[4-(4-chlorophenoxy)-2-(trifluoromethyl)phenyl]-1,3-dioxolan-2-yl]methyl]imidazole]
4.08	CC1COC(Cn2cncc2C#N)(c2ccc(Oc3ccc(C(F)(F)F)cc3)cc2Cl)O1 (stereo not shown) [Compound I-32, 1-{[2-{2-chloro-4-[4-(trifluoromethyl)phenoxy]phenyl}-4-methyl-1,3-dioxolan-2-yl]methyl}-1H-imidazole-5-carbonitrile]
2.53	Fc1cncn1CC1(c2ccc(Oc3ccc(C(F)(F)F)nc3)nc2C(F)(F)F)OCCO1 [Compound I-19, 3-[2-[(5-fluoroimidazol-1-yl)methyl]-1,3-dioxolan-2-yl]-2-(trifluoromethyl)-6-[[6-(trifluoromethyl)-3-pyridyl]oxy]pyridine]
2.42	Fc1cncn1CC1(c2ccc(Oc3ccc(Cl)cc3)nc2C(F)(F)F)OCCO1 [Compound I-18, 6-(4-chlorophenoxy)-3-[2-[(5-fluoroimidazol-1-yl)methyl]-1,3-dioxolan-2-yl]-2-(trifluoromethyl)pyridine]
3.29	Clc1ccc(Oc2ccc(C3(Cn4cncc4Cl)OCCO3)c(Cl)c2)cc1 [Compound I-01, 5-chloro-1-[[2-[2-chloro-4-(4-chlorophenoxy)phenyl]-1,3-dioxolan-2-yl]methyl]imidazole]

From patent publication US20200029563A1, “NOVEL 5-SUBSTITUTED IMIDAZOLYLMETHYLDIOXOLANE DERIVATIVES” (Bayer CropScience Aktiengesellschaft, priority 2016, published 2020)
